In this test the target is T1, c-Abl protein tyrosine kinase (Homo sapiens, UniProt P00519).
T1 construct: c-Abl Kinase Fragment, Amino Acids 218-500; Factor Xa cleavage site (IEGR) (N); made in house; host or cells: baculovirus / Sf9 insect cells
T1 sequence (P00519 with tags, fused parts or gaps): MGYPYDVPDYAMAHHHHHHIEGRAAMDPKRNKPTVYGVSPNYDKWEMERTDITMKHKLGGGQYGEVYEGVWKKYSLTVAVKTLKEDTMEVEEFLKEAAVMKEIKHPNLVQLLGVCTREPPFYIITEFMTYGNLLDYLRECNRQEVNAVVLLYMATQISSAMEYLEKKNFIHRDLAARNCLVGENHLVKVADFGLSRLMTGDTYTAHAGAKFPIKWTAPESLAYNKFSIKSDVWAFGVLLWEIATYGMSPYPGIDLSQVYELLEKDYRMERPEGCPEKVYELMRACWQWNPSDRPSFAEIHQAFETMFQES
Nature of the test: c-Abl protein tyrosine kinase filter binding assay ([32P]-ATP, Poly-AEKY substrate). The class given is biochemical. To be noted: hit from HTD; in vitro confirmation test described, IC50 not given. Here is the method: The top scoring poses are evaluated interactively using molecular graphics to select those compounds which formed favorable intermolecular hydrogen bonds and van der Waals interactions with the c-Abl kinase receptor model, as well as to eliminate compounds containing cis-amides and non-aromatic tautomers. Compounds are also selected for desirable drug-like properties, such as size, lipophilicity and chemical stability. The resulting “hit” compounds are confirmed as leads for drug optimization, by their in vitro evaluation in a test for activity against c-Abl protein tyrosine kinase. The test is conducted as a filter binding assay as follows: The His-tagged kinase domain of c-Abl is cloned and expressed in the baculovirus/Sf9 system. See Bhat et al., J Biol Chem, Vol. 27, pp. 16170-16175 (1997). […] Membranes are counted after drying at ambient temperature, mounting in Packard TopCount 96-well frame, and addition of 10 μL/well of Microscint™ (Packard). The activity of the compounds is quantified as IC50 and IC90 values, as determined from their dose response curves by graphical extrapolation. Thus, IC50 values are determined by linear regression analysis of the percentages for the inhibition of each compound in at least four concentrations (as a rule 0.01, 0.1, 1.0 and […]).

Results on 1 compound are retold here after patent US20060030017A1, “Three-dimensional structure of c-Abl” (priority 2004, published 2006).

Molecules are shown by their SMILES.

On to `COc1cccc(-n2cc(-c3cccc(OCCNCCO)c3)c3ncnc(N)c32)c1` [2-[[2-[3-[4-amino-5-(3-methoxyphenyl)-5H-pyrrolo[3,2-d]pyrimidin-7-yl]phenoxy]ethyl]amino]-ethanol], for which the “inhibition of c-Abl kinase (hit identified by virtual screening)” value is given as “specific inhibitors of c-Abl kinase”.
